This passage reports EC50 results from patent publication US20240183865A1, “METHOD FOR MEASURING AGGREGATING PROTEINS, METHOD FOR VISUALIZING AGGREGATION, AND KIT USED THEREFOR” (KANEKA CORPORATION, priority 2021, published 2024).

A value given as a limit tells only on which side of the number the result lay.

The target in the test is T1, Aβ42 (Homo sapiens, UniProt P05067).
T1 construct: the amyloid β42 protein (Aβ42)
The experiment in a line: MSHTS quantification of aggregated Aβ with QD-Aβ40 in filtrate collected with Blocking 12. Particulars: Aβ42 and QD-Aβ40, 37° C. for 24 hours, SD value, read-out: RA concentration at which Aβ accounting for approximately 50% of the whole would not be aggregated. It counts as biochemical. As to the method:
Accordingly, whether or not it is possible to visualize aggregation of the amyloid β protein in such filtrate was examined. The quantum-dot-modified amyloid 40 protein (QD-Aβ40) was dissolved in the filtrate collected in Example 3, the solution was added to and mixed with the 1 mM Aβ42 solution, and the filtrate collected in Example 3 comprising 50 μM Aβ42 and 50 nM QD-Aβ40 was prepared. The 150 mM rosmarinic acid (RA) solution was diluted with the filtrate collected in Example 3 to five levels of concentration (3,000 μM, 600 μM, 120 μM, 24 μM, and 4.8 μM). Aβ42 and QD-A$40 were diluted with the filtrate collected in Example 3 to prepare a mixture of 50 μM Aβ42 and 50 nM QD-Aβ40. […] As a result, none of the solutions were sufficient in terms of sensitivity of SD values to perform quantitative analysis of aggregated Aβ (FIG. 4).
With the use of Blocking 12, accordingly, a 50 μM Aβ42 solution was prepared from the filtrate collected in the same manner as in Example 2, and QD-Aβ40 was diluted in the collected filtrate to adjust the concentration of QD-Aβ40 to 50 nM. […] These reaction solutions were incubated at 37° C. for 24 hours, aggregated Aβ was observed under a fluorescent microscope, and aggregated AD was quantified. […] It was found necessary that the sensitivity of the SD value be 60% or higher relative to that of PBS designated as 100% for quantification of aggregated AD.

T1 sequence (P05067 672-713 limits assumed): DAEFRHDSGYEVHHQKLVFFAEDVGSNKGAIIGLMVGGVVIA

Regarding `O=C(/C=C/c1ccc(O)c(O)c1)O[C@H](Cc1ccc(O)c(O)c1)C(=O)O` [RA, rosmarinic acid], the EC50 was at most 46 µM.
